Experiments:
[1] = PXRD study of crystal form stability on storage in stability chambers; type: physicochemical
Experimental: Ibrutinib Form APO-I can be characterized by a PXRD diffractogram comprising, among other peaks, characteristic peaks, expressed in degrees 2θ (±0.2°), at 5.1°, 7.6° and 12.5°. Preferably, the PXRD diffractogram further comprises at least three peaks, expressed in degrees 2θ (±0.2°), selected from the group consisting of: 10.1°, 11.1°, 14.2°, 15.4°, 16.3°, 17.3° and 18.7°. More preferably, the PXRD diffractogram further comprises peaks, expressed in degrees 2θ (±0.2°), at 10.1°, 11.1°, 14.2°, 15.4°, 16.3°, 17.3° and 18.7°. PXRD studies of capped and uncapped samples of Ibrutinib Form APO-I have shown that this crystal form is stable following storage in stability chambers maintained at 27° C./60% RH for at least 31 days and 40° C./75% RH for at least 21 days.
Ibrutinib Form APO-II can be characterized by a PXRD diffractogram comprising, among other peaks, characteristic peaks, expressed in degrees 2θ (±0.2°), at 6.4°, 10.1° and 12.8°. Preferably, the PXRD diffractogram further comprises at least three peaks, expressed in degrees 2θ (±0.2°), selected from the group consisting of: 13.8°, 17.6°, 18.4°, 19.4°, 20.4°, 21.0°, 21.7°, 23.2°, 24.1° and 24.9°. More preferably, the PXRD diffractogram further comprises peaks, expressed in degrees 2θ (±0.2°), at 13.8°, 17.6°, 18.4°, 19.4°, 20.4°, 21.0°, 21.7°, 23.2°, 24.1° and 24.9°. PXRD studies of capped and uncapped samples of Ibrutinib Form APO-II have shown that this crystal form is stable following storage in stability chambers maintained at 27° C./60% RH and 40° C./75% RH for at least 25 days.
Ibrutinib Form APO-IV can be characterized by a PXRD diffractogram comprising, among other peaks, characteristic peaks, expressed in degrees 2θ (±0.2°), at 6.4°, 10.2° and 12.9°. Preferably, the PXRD diffractogram further comprises at least three peaks, expressed in degrees 2θ (±0.2°), selected from the group consisting of: 13.9°, 17.7°, 18.4°, 19.4°, 20.5°, 21.3°, 21.8°, 23.2°, 24.2° and 24.9°. More preferably, the PXRD diffractogram further comprises peaks, expressed in degrees 2θ (±0.2°), at 13.9°, 17.7°, 18.4°, 19.4°, 20.5°, 21.3°, 21.8°, 23.2°, 24.2° and 24.9°. PXRD studies of uncapped samples of Ibrutinib Form APO-IV have shown that this crystal form is stable following storage in a stability chambers maintained at 40° C./75% RH for at least 11 months.
Data were acquired on a PANanalytical X-Pert Pro MPD diffractometer with fixed divergence slits and an X'Celerator RTMS detector. The diffractometer was configured in Bragg-Brentano geometry; data was collected over a 2-theta range of 3° to 40° using CuKα radiation at a power of 40 mA and 45 kV. CuKβ radiation was removed using a divergent beam nickel filter. A step size of 0.017° was used. Samples were rotated to reduce preferred orientation effects. Samples were lightly ground prior to analysis.

[2] = cited from earlier work
[3] = 27° C./60% RH, capped and uncapped samples
[4] = 40° C./75% RH, capped and uncapped samples

SMILES	crystal form stable following storage (PXRD) [1, 3]	crystal form stable following storage (PXRD) [1, 4]	also measured
C=CC(=O)N1CCCC(n2nc(-c3ccc(Oc4ccccc4)cc3)c3c(N)ncnc32)C1 (stereo not shown) [Form APO-IV]	–	–	crystal form stable following storage (PXRD) ([1]; 40° C./75% RH, uncapped samples): at least 11 months
C=CC(=O)N1CCCC(n2nc(-c3ccc(Oc4ccccc4)cc3)c3c(N)ncnc32)C1 (stereo not shown) [Form B]	–	–	aqueous solubility ([2]; reported for other anhydrous forms): low aqueous solubility
C=CC(=O)N1CCCC(n2nc(-c3ccc(Oc4ccccc4)cc3)c3c(N)ncnc32)C1 (stereo not shown) [Form A]	–	–	solubility ([2]; drug substance in IMBRUVICA, per AusPAR): pH dependent solubility

Further lines, with some results ahead:

crystal form stable following storage (PXRD) [1, 3]	crystal form stable following storage (PXRD) [1, 4]	SMILES	also measured
at least 25 days	at least 25 days	C=CC(=O)N1CCCC(n2nc(-c3ccc(Oc4ccccc4)cc3)c3c(N)ncnc32)C1 (stereo not shown) [Form APO-II]	–
at least 31 days	at least 21 days	C=CC(=O)N1CCCC(n2nc(-c3ccc(Oc4ccccc4)cc3)c3c(N)ncnc32)C1 (stereo not shown) [Form APO-I]	–
